Columns and labels:
[1] = biological target: Kelch domain of human KEAP1 (321-624 aa) (Homo sapiens (Human), UniProt Q14145); assay: KEAP1 KELCH ThermoFluor binding assay; details: KEAP Kelch […], 1,8-ANS, pH 7.0, average of results obtained, read-out: Tf Kd;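 also: Ligand-induced melting temperature shift of E. coli-expressed KEAP1 Kelch protein, Kd estimated from concentration-response curves of ΔTm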
[2] = tested on: Glo-Response ARE-luc2P HEK293 cell line; assay: ARE luciferase reporter cell-based assay; details: Homo sapiens, HEK293, 24 h, average of results obtained;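 also: luciferase signal tracks Nrf2 activation of the ARE once compounds disrupt KEAP1-Nrf2 binding, read with One-Glo reagent, DMSO serving as low control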

Sequence of Kelch domain of human KEAP1 (321-624 aa) (Q14145 321-624): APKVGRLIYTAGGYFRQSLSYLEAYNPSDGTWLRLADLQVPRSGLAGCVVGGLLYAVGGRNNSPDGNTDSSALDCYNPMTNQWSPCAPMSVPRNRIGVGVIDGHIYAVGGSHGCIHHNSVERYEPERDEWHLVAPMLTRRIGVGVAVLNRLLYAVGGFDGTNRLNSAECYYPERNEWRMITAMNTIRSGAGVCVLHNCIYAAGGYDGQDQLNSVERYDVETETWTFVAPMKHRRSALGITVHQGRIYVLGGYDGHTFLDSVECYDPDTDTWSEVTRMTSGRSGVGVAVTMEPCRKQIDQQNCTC

| Kd [1] | SMILES | EC50 [2] |
| --- | --- | --- |
| < 0.001 µM | Cc1ccc([C@H](CC(=O)O)c2ccn3c(C(F)(F)F)nnc3c2C)nc1CN1C[C@@H]2CCCCN2c2ncc(Cl)cc2S1(=O)=O (single isomer, unassigned) [Example 521, (*R)-3-(6-(((*S)-3-Chloro-5,5-dioxido-7,7a,8,9,10,11-hexahydro-6H-dipyrido[2,1-d:2′,3′-f][1,2,5]thiadiazepin-6-yl)methyl)-5-methylpyridin-2-yl)-3-(8-methyl-3-(trifluoromethyl)-[1,2,4]triazolo[4,3-a]pyridin-7-yl)propanoic Acid] | 0.00197 µM |
| < 0.001 µM | Cc1ccc([C@@H](CC(=O)O)c2ccn3c(C(F)F)nnc3c2C)cc1CN1CC2(CCOCC2)Oc2ccc(F)cc2S1(=O)=O (single isomer, unassigned) [Example 525, (*R)-3-(3-(Difluoromethyl)-8-methyl-[1,2,4]triazolo[4,3-a]pyridin-7-yl)-3-(3-((8-fluoro-1,1-dioxido-2′,3′,5′,6′-tetrahydrospiro[benzo[b][1,4,5]oxathiazepine-4,4′-pyran]-2(3H)-yl)methyl)-4-methylphenyl)propanoic Acid] | 0.0388 µM |
| < 0.001 µM | Cc1ccc([C@@H](CC(=O)O)c2ccn3c(C(F)F)nnc3c2C)cc1CN1CC2(CC2)Oc2ncc(F)cc2S1(=O)=O (single isomer, unassigned) [Example 528, (*R)-3-(3-(Difluoromethyl)-8-methyl-[1,2,4]triazolo[4,3-a]pyridin-7-yl)-3-(3-((8′-fluoro-1′,1′-dioxidospiro[cyclopropane-1,4′-pyrido[2,3-b][1,4,5]oxathiazepin]-2′(3′H)-yl)methyl)-4-methylphenyl)propanoic Acid] | 0.236 µM |
| < 0.001 µM | Cc1ccc([C@H](CC(=O)O)c2ccn3c(C(F)F)nnc3c2C)cc1CN1CC2(CCOCC2)Oc2ncc(F)cc2S1(=O)=O (single isomer, unassigned) [Example 533, (*S)-3-(3-(Difluoromethyl)-8-methyl-[1,2,4]triazolo[4,3-a]pyridin-7-yl)-3-(3-((8′-fluoro-1′,1′-dioxido-2,3,5,6-tetrahydrospiro[pyran-4,4′-pyrido[2,3-b][1,4,5]oxathiazepin]-2′(3′H)-yl)methyl)-4-methylphenyl)propanoic Acid] | 0.0313 µM |
| < 0.001 µM | Cc1ccc([C@@H](CC(=O)O)c2ccn3c(C(F)F)nnc3c2C)cc1CN1C[C@H]2CCCN2c2ncc(C#N)cc2S1(=O)=O (single isomer, unassigned) [Example 541, (*R)-3-(3-(((*R)-3-Cyano-5,5-dioxido-7a,8,9,10-tetrahydropyrido[2,3-f]pyrrolo[2,1-d][1,2,5]thiadiazepin-6(7H)-yl)methyl)-4-methylphenyl)-3-(3-(difluoromethyl)-8-methyl-[1,2,4]triazolo[4,3-a]pyridin-7-yl)propanoic Acid] | 0.223 µM |
| < 0.001 µM | Cc1ccc([C@@H](CC(=O)O)c2ccn3c(C(F)F)nnc3c2C)cc1CN1C[C@@H]2CCCN2c2ncc(C#N)cc2S1(=O)=O (single isomer, unassigned) [Example 544, (*R)-3-(3-(((S)-3-Cyano-5,5-dioxido-7a,8,9,10-tetrahydropyrido[2,3-f]pyrrolo[2,1-d][1,2,5]thiadiazepin-6(7H)-yl)methyl)-4-methylphenyl)-3-(3-(difluoromethyl)-8-methyl-[1,2,4]triazolo[4,3-a]pyridin-7-yl)propanoic Acid] | 0.278 µM |
| 0.26 µM | Cc1ccc([C@H](CC(N)=O)c2ccn3c(C(F)(F)F)nnc3c2C)cc1CN1C[C@@H]2CCCCN2c2ncccc2S1(=O)=O (single isomer, unassigned) [Example 548, (*S)-3-(3-(((*S)-5,5-Dioxido-7,7a,8,9,10,11-hexahydro-6H-dipyrido[2,1-d:2′,3′-f][1,2,5]thiadiazepin-6-yl)methyl)-4-methylphenyl)-3-(8-methyl-3-(trifluoromethyl)-[1,2,4]triazolo[4,3-a]pyridin-7-yl)propanamide] | 2.74 µM |
| 84.6 µM | Cc1ccc([C@@H](CC(N)=O)c2ccn3c(C(F)(F)F)nnc3c2C)cc1CN1C[C@@H]2CCCCN2c2ncccc2S1(=O)=O (single isomer, unassigned) [Example 549, (*R)-3-(3-(((*S)-5,5-Dioxido-7,7a,8,9,10,11-hexahydro-6H-dipyrido[2,1-d:2′,3′-f][1,2,5]thiadiazepin-6-yl)methyl)-4-methylphenyl)-3-(8-methyl-3-(trifluoromethyl)-[1,2,4]triazolo[4,3-a]pyridin-7-yl)propanamide] | > 20 µM |
| 0.15 µM | Cc1ccc([C@H](CC(=O)O)c2ccn3c(C(F)F)nnc3c2C)cc1CN1CC2(CC2)Oc2ncc(C(N)=O)cc2S1(=O)=O (single isomer, unassigned) [Example 552, (*S)-3-(3-((8′-Carbamoyl-1′,1′-dioxidospiro[cyclopropane-1,4′-pyrido[2,3-b][1,4,5]oxathiazepin]-2′(3′H)-yl)methyl)-4-methylphenyl)-3-(3-(difluoromethyl)-8-methyl-[1,2,4]triazolo[4,3-a]pyridin-7-yl)propanoic Acid] | > 20 µM |

More lines, now with the values behind:

| SMILES | Kd [1] | EC50 [2] |
| --- | --- | --- |
| Cc1ccc([C@@H](CC(=O)O)c2ccn3c(C(F)(F)F)nnc3c2C)nc1CN1C[C@H]2CCCCN2c2ncc(Cl)cc2S1(=O)=O (single isomer, unassigned) [Example 520, (*S)-3-(6-(((*R)-3-Chloro-5,5-dioxido-7,7a,8,9,10,11-hexahydro-6H-dipyrido[2,1-d:2′,3′-f][1,2,5]thiadiazepin-6-yl)methyl)-5-methylpyridin-2-yl)-3-(8-methyl-3-(trifluoromethyl)-[1,2,4]triazolo[4,3-a]pyridin-7-yl)propanoic Acid] | < 0.001 µM | 0.0156 µM |
| Cc1ccc([C@H](CC(=O)O)c2ccn3c(C(F)F)nnc3c2C)cc1CN1CC2(CC2)Oc2ncc(F)cc2S1(=O)=O (single isomer, unassigned) [Example 527, (*S)-3-(3-(Difluoromethyl)-8-methyl-[1,2,4]triazolo[4,3-a]pyridin-7-yl)-3-(3-((8′-fluoro-1′,1′-dioxidospiro[cyclopropane-1,4′-pyrido[2,3-b][1,4,5]oxathiazepin]-2′(3′H)-yl)methyl)-4-methylphenyl)propanoic Acid] | < 0.001 µM | 0.0222 µM |
| Cc1ccc([C@@H](CC(=O)O)c2ccn3c(C(F)F)nnc3c2C)cc1CN1CC2(CC2)Oc2ncc(Cl)cc2S1(=O)=O (single isomer, unassigned) [Example 531, (*R)-3-(3-((8′-Chloro-1′,1′-dioxidospiro[cyclopropane-1,4′-pyrido[2,3-b][1,4,5]oxathiazepin]-2′(3′H)-yl)methyl)-4-methylphenyl)-3-(3-(difluoromethyl)-8-methyl-[1,2,4]triazolo[4,3-a]pyridin-7-yl)propanoic Acid] | < 0.001 µM | 0.113 µM |
| Cc1ccc([C@@H](CC(=O)O)c2ccn3c(C(F)F)nnc3c2C)cc1CN1CC2(CCOCC2)Oc2ncc(F)cc2S1(=O)=O (single isomer, unassigned) [Example 534, (*R)-3-(3-(Difluoromethyl)-8-methyl-[1,2,4]triazolo[4,3-a]pyridin-7-yl)-3-(3-((8′-fluoro-1′,1′-dioxido-2,3,5,6-tetrahydrospiro[pyran-4,4′-pyrido[2,3-b][1,4,5]oxathiazepin]-2′(3′H)-yl)methyl)-4-methylphenyl)propanoic Acid] | < 0.001 µM | 0.0992 µM |
| Cc1cnc2c(c1)S(=O)(=O)N(Cc1cc([C@H](CC(=O)O)c3ccn4c(C(F)F)nnc4c3C)ccc1C)CC1(CC1)O2 (single isomer, unassigned) [Example 536, (*S)-3-(3-(Difluoromethyl)-8-methyl-[1,2,4]triazolo[4,3-a]pyridin-7-yl)-3-(4-methyl-3-((8′-methyl-1′,1′-dioxidospiro[cyclopropane-1,4′-pyrido[2,3-b][1,4,5]oxathiazepin]-2′(3′H)-yl)methyl)phenyl)propanoic Acid] | < 0.001 µM | 0.0597 µM |
| Cc1cnc2c(c1)S(=O)(=O)N(Cc1cc([C@@H](CC(=O)O)c3ccn4c(C(F)F)nnc4c3C)ccc1C)CC1(CC1)O2 (single isomer, unassigned) [Example 537, (*R)-3-(3-(Difluoromethyl)-8-methyl-[1,2,4]triazolo[4,3-a]pyridin-7-yl)-3-(4-methyl-3-((8′-methyl-1′,1′-dioxidospiro[cyclopropane-1,4′-pyrido[2,3-b][1,4,5]oxathiazepin]-2′(3′H)-yl)methyl)phenyl)propanoic Acid] | < 0.001 µM | 0.464 µM |
| Cc1ccc2c(n1)OC1(CC1)CN(Cc1cc([C@H](CC(=O)O)c3ccn4c(C(F)(F)F)nnc4c3C)ccc1C)S2(=O)=O (single isomer, unassigned) [Example 538, (*S)-3-(4-Methyl-3-((7′-methyl-1′,1′-dioxidospiro[cyclopropane-1,4′-pyrido[2,3-b][1,4,5]oxathiazepin]-2′(3′H)-yl)methyl)phenyl)-3-(8-methyl-3-(trifluoromethyl)-[1,2,4]triazolo[4,3-a]pyridin-7-yl)propanoic Acid] | < 0.001 µM | 0.0589 µM |
| Cc1ccc([C@H](CC(=O)O)c2ccn3c(C(F)F)nnc3c2C)cc1CN1C[C@H]2CCCN2c2ncc(C#N)cc2S1(=O)=O (single isomer, unassigned) [Example 540, (*S)-3-(3-(((*R)-3-Cyano-5,5-dioxido-7a,8,9,10-tetrahydropyrido[2,3-f]pyrrolo[2,1-d][1,2,5]thiadiazepin-6(7H)-yl)methyl)-4-methylphenyl)-3-(3-(difluoromethyl)-8-methyl-[1,2,4]triazolo[4,3-a]pyridin-7-yl)propanoic Acid] | < 0.001 µM | 0.0267 µM |
| Cc1ccc([C@H](CC(=O)O)c2ccn3c(C(F)F)nnc3c2C)cc1CN1C[C@@H]2CCCN2c2ncc(C#N)cc2S1(=O)=O (single isomer, unassigned) [Example 543, (*S)-3-(3-(((S)-3-Cyano-5,5-dioxido-7a,8,9,10-tetrahydropyrido[2,3-f]pyrrolo[2,1-d][1,2,5]thiadiazepin-6(7H)-yl)methyl)-4-methylphenyl)-3-(3-(difluoromethyl)-8-methyl-[1,2,4]triazolo[4,3-a]pyridin-7-yl)propanoic Acid] | < 0.001 µM | 0.0429 µM |

From patent US10947252B2, “Inhibitors of KEAP1-Nrf2 protein-protein interaction” (Janssen Pharmaceutica NV, priority 2018, dated 2021)
